# Data reported in a compilation of properties of binary mixtures (doi:10.1524/zpch.2013.0326).
# Test: xn = mol fraction of the nth substance listed
# Conditions: 101 kPa
smiles,measurement,setting,value
CCCCCCCC[n+]1ccc2ccccc2c1.O=S(=O)([N-]S(=O)(=O)C(F)(F)F)C(F)(F)F + c1ccncc1,viscosity,"298.15 K, x2 = 0",369 mPa·s
same,viscosity,"298.15 K, x2 = 0.0945",292 mPa·s
same,viscosity,"298.15 K, x2 = 0.1869",205 mPa·s
same,viscosity,"298.15 K, x2 = 0.2762",141.5 mPa·s
same,viscosity,"298.15 K, x2 = 0.3675",89.1 mPa·s
same,viscosity,"298.15 K, x2 = 0.4584",56.5 mPa·s
same,viscosity,"298.15 K, x2 = 0.5383",42.09 mPa·s
same,viscosity,"298.15 K, x2 = 0.637",19.55 mPa·s
same,viscosity,"298.15 K, x2 = 0.7274",10.36 mPa·s
same,viscosity,"298.15 K, x2 = 0.8199",6.68 mPa·s
same,viscosity,"298.15 K, x2 = 0.9064",3.11 mPa·s
same,viscosity,"308.15 K, x2 = 0",191 mPa·s
same,viscosity,"308.15 K, x2 = 0.1869",113.6 mPa·s
same,viscosity,"308.15 K, x2 = 0.2762",81.4 mPa·s
same,viscosity,"308.15 K, x2 = 0.3675",53.9 mPa·s
same,viscosity,"308.15 K, x2 = 0.4584",35.87 mPa·s
same,viscosity,"308.15 K, x2 = 0.5383",27.64 mPa·s
same,viscosity,"308.15 K, x2 = 0.637",13.92 mPa·s
same,viscosity,"308.15 K, x2 = 0.7274",7.76 mPa·s
same,viscosity,"308.15 K, x2 = 0.9064",2.6 mPa·s
same,viscosity,"328.15 K, x2 = 0.0945",57 mPa·s
same,viscosity,"328.15 K, x2 = 0.1869",44.5 mPa·s
same,viscosity,"328.15 K, x2 = 0.2762",34.07 mPa·s
same,viscosity,"328.15 K, x2 = 0.3675",24.08 mPa·s
same,viscosity,"328.15 K, x2 = 0.4584",17.33 mPa·s
same,viscosity,"328.15 K, x2 = 0.5383",14.12 mPa·s
same,viscosity,"328.15 K, x2 = 0.637",8.02 mPa·s
same,viscosity,"328.15 K, x2 = 0.8199",3.64 mPa·s
same,viscosity,"328.15 K, x2 = 0.9064",1.92 mPa·s
same,viscosity,"338.15 K, x2 = 0",44.8 mPa·s
same,viscosity,"338.15 K, x2 = 0.1869",30.56 mPa·s
same,viscosity,"338.15 K, x2 = 0.2762",23.96 mPa·s
same,viscosity,"338.15 K, x2 = 0.3675",17.44 mPa·s
same,viscosity,"338.15 K, x2 = 0.4584",12.94 mPa·s
same,viscosity,"338.15 K, x2 = 0.637",6.34 mPa·s
same,viscosity,"338.15 K, x2 = 0.7274",3.95 mPa·s
same,viscosity,"338.15 K, x2 = 0.9064",1.68 mPa·s
same,viscosity,"348.15 K, x2 = 0",31.62 mPa·s
same,viscosity,"348.15 K, x2 = 0.1869",21.19 mPa·s
same,viscosity,"348.15 K, x2 = 0.2762",17.53 mPa·s
same,viscosity,"348.15 K, x2 = 0.3675",13.12 mPa·s
same,viscosity,"348.15 K, x2 = 0.4584",10.01 mPa·s
same,viscosity,"348.15 K, x2 = 0.5383",8.48 mPa·s
same,viscosity,"348.15 K, x2 = 0.637",5.11 mPa·s
same,viscosity,"348.15 K, x2 = 0.7274",3.3 mPa·s
same,viscosity,"348.15 K, x2 = 0.8199",2.67 mPa·s
same,viscosity,"348.15 K, x2 = 0.9064",1.49 mPa·s
CCCCCCCC[n+]1ccc2ccccc2c1.O=S(=O)([N-]S(=O)(=O)C(F)(F)F)C(F)(F)F + c1ccsc1,viscosity,"298.15 K, x2 = 0",369 mPa·s
same,viscosity,"298.15 K, x2 = 0.0964",300 mPa·s
same,viscosity,"298.15 K, x2 = 0.1907",215 mPa·s
same,viscosity,"298.15 K, x2 = 0.2739",155.2 mPa·s
same,viscosity,"298.15 K, x2 = 0.3572",112.1 mPa·s
same,viscosity,"298.15 K, x2 = 0.4456",72.5 mPa·s
same,viscosity,"298.15 K, x2 = 0.6385",23.26 mPa·s
same,viscosity,"298.15 K, x2 = 0.7244",12.82 mPa·s
same,viscosity,"298.15 K, x2 = 0.8627",5.27 mPa·s
same,viscosity,"298.15 K, x2 = 0.9065",3.34 mPa·s
same,viscosity,"298.15 K, x2 = 0.935",2.38 mPa·s
same,viscosity,"308.15 K, x2 = 0",191 mPa·s
same,viscosity,"308.15 K, x2 = 0.1907",118 mPa·s
same,viscosity,"308.15 K, x2 = 0.2739",88.3 mPa·s
same,viscosity,"308.15 K, x2 = 0.3572",66.1 mPa·s
same,viscosity,"308.15 K, x2 = 0.4456",44.61 mPa·s
same,viscosity,"308.15 K, x2 = 0.7244",9.45 mPa·s
same,viscosity,"308.15 K, x2 = 0.8627",4.26 mPa·s
same,viscosity,"308.15 K, x2 = 0.935",2.01 mPa·s
same,viscosity,"318.15 K, x2 = 0.1907",70.9 mPa·s
same,viscosity,"318.15 K, x2 = 0.3572",42.17 mPa·s
same,viscosity,"318.15 K, x2 = 0.4456",29.44 mPa·s
same,viscosity,"318.15 K, x2 = 0.542",19.21 mPa·s
same,viscosity,"318.15 K, x2 = 0.6385",11.79 mPa·s
same,viscosity,"318.15 K, x2 = 0.7244",7.2 mPa·s
same,viscosity,"318.15 K, x2 = 0.821",4.88 mPa·s
same,viscosity,"318.15 K, x2 = 0.8627",3.53 mPa·s
same,viscosity,"318.15 K, x2 = 0.935",1.73 mPa·s
same,viscosity,"328.15 K, x2 = 0",67.9 mPa·s
same,viscosity,"328.15 K, x2 = 0.0964",57.9 mPa·s
same,viscosity,"328.15 K, x2 = 0.1907",45.7 mPa·s
same,viscosity,"328.15 K, x2 = 0.2739",36.23 mPa·s
same,viscosity,"328.15 K, x2 = 0.3572",28.66 mPa·s
same,viscosity,"328.15 K, x2 = 0.4456",20.52 mPa·s
same,viscosity,"328.15 K, x2 = 0.542",13.96 mPa·s
same,viscosity,"328.15 K, x2 = 0.6385",8.96 mPa·s
same,viscosity,"328.15 K, x2 = 0.7244",5.63 mPa·s
same,viscosity,"328.15 K, x2 = 0.821",4.03 mPa·s
same,viscosity,"328.15 K, x2 = 0.8627",2.98 mPa·s
same,viscosity,"328.15 K, x2 = 0.9065",2.04 mPa·s
same,viscosity,"328.15 K, x2 = 0.935",1.51 mPa·s
same,viscosity,"338.15 K, x2 = 0",44.8 mPa·s
same,viscosity,"338.15 K, x2 = 0.0964",38.71 mPa·s
same,viscosity,"338.15 K, x2 = 0.1907",33.3 mPa·s
same,viscosity,"338.15 K, x2 = 0.2739",25.31 mPa·s
same,viscosity,"338.15 K, x2 = 0.4456",14.97 mPa·s
same,viscosity,"338.15 K, x2 = 0.542",10.53 mPa·s
same,viscosity,"338.15 K, x2 = 0.6385",6.98 mPa·s
same,viscosity,"338.15 K, x2 = 0.7244",4.53 mPa·s
same,viscosity,"338.15 K, x2 = 0.821",3.4 mPa·s
same,viscosity,"338.15 K, x2 = 0.8627",2.55 mPa·s
same,viscosity,"338.15 K, x2 = 0.9065",1.78 mPa·s
same,viscosity,"338.15 K, x2 = 0.935",1.34 mPa·s
same,viscosity,"348.15 K, x2 = 0",31.62 mPa·s
same,viscosity,"348.15 K, x2 = 0.0964",27.2 mPa·s
same,viscosity,"348.15 K, x2 = 0.1907",22.4 mPa·s
same,viscosity,"348.15 K, x2 = 0.2739",18.35 mPa·s
same,viscosity,"348.15 K, x2 = 0.3572",15.04 mPa·s
same,viscosity,"348.15 K, x2 = 0.542",8.22 mPa·s
same,viscosity,"348.15 K, x2 = 0.6385",5.57 mPa·s
same,viscosity,"348.15 K, x2 = 0.7244",3.73 mPa·s
same,viscosity,"348.15 K, x2 = 0.821",2.91 mPa·s
same,viscosity,"348.15 K, x2 = 0.8627",2.22 mPa·s
same,viscosity,"348.15 K, x2 = 0.9065",1.57 mPa·s
same,viscosity,"348.15 K, x2 = 0.935",1.25 mPa·s
